Assay [1] relates to osteoclast like cells from bone marrow cells of mice of ddy strain. Kind of assay: Formation of osteoclast like cells from bone marrow cells of mice of ddy strain. The format is cell-based, mouse. As for the experimental part:
Bone marrow cells were prepared in accordance with the method by Takahashi et al (Takahashi, N. et al., Endocrinology, 122, 1373, 1988). Male mice of ddy strain of 7 weeks old were exanguinated to death under ether anesthesia and the femur and the tibia of hind legs were collected from each mouse. The connective tissues on the surfaces of the bones were carefully removed, and both ends of each bone were cut off with scissors. The bone marrow cells were suspended in α-Minimum Essential Medium (α-MEM, Nissui Pharmaceuticals Co.) containing 10% pre-colostrum new born calf serum (Mitsubishi Chemical, hereinafter referred to as “JCS” for short) and the suspension was flushed out through a 25 G needle attached to a syringe to collect the suspension in a centrifugal tube. The collected suspension was washed by centrifugation in the same medium at 2000 rpm at 4° C. for 5 minutes. The precipitated cells were dispersed in the above-mentioned medium and the washing by centrifugation was repeated twice, thereby preparing bone marrow cells. Murine IFN-α (hereinafter referred to as “MuIFNα” for short), Lot. B13010, 106 units/ml/vial (Calbiochem-Novabiochem International, San Diego, Calif.), murine IFN-β (hereinafter referred to as “MuIFNβ” for short), Lot M-0034, 10 units/ml/vial (Toray Industries, Inc.) and murine IFNγ (hereinafter referred to as “MuIFNγ” for short), Lot 254F3, 2.06×10^6 units/ml (Genentech, Calif.) were respectively dissolved in 10% JCS-containing α-MEM (Nissui Pharmaceuticals Co.) to the desired concentrations. Active vitamin D3 ([…], Wako Pure Chemical Industries, Ltd., hereinafter referred to as “Vit D3” for short) was dissolved in argon-saturated ethanol, and the obtained solution was diluted so as to attain the final ethanol concentration of 0.1% in all of the culture systems.
The number of viable bone marrow cells was counted using tripam blue dye exclusion test and the bone marrow cells were diluted with α-MEM containing 10% JCS, 10^−8M Vit D3, 10^−7 M dexamethasone to a population density of 1.5×10^6 cells/ml, followed by placing the resulting suspension in each well in 24-well plates in an amount of 0.45 ml/well. To each well, 50 μl of the medium containing varying concentration of IFN was added to make the volume to 0.5 ml/well and culturing was begun. At every three days, 0.4 ml of the culture medium was removed from each well and 0.4 ml of fresh medium (the above-mentioned medium containing the respective concentration of IFN) was added. On Day 8 from the beginning of the culturing, the medium was removed and the cells were fixed with mixed solution of ethyl alcohol and diethyl ether (1:1) and the cells were stained with tartrate resistant acid phosphatase (TRAP), followed by counting TRAP positive multinuclear cells with a phase contrast microscope. […] The inhibition effect of IFNγ was stronger than that of IFNβ. That is, the inhibition concentration IC50 of IFNγ was not more than 0.1 units/ml, and that of IFNβ was 0.2 units/ml.
The effects of the three murine IFNs, that is, MuIFNβ, γ and α in terms of abilities to inhibit formation of osteoclast like cells from bone marrow cells in mice of ddy strain were compared. The test was carried out as in Example 1. All of the murine IFNs inhibited the formation of osteoclast like cells, and the effect was strong in the order of γ, β and α. […] Thus, the activity of IFNα to inhibit formation of osteoclasts was about 1/20 of that of IFNβ and about not more than 1/100 of that of IFNγ.

The test system of the next assay is MC3T3-E1 cells. The experiment in a line: Proliferation of murine osteoblastic cells MC3T3-E1 (in vitro single administration). The format is cell-based, mouse. Conditions: 10,000 units/ml; cell count on Day 6. As for the experimental part: Murine osteoblast like cells MC3T3-E1 originated from C 57 BL/6 mouse (Kodama et al., Jap. J. Oral Biol., 23, 899, 1982) were washed with PBS(−) and the cells were dissociated by incubation in PBS(−) containing 0.1% pronase (Actinase E, Kaken Pharmaceuticals Co.), followed by dispersing the cells in α-MEM containing 10% JCS and 50 μg/ml of L-ascorbic acid (ASA). The ability to promote proliferation of cells was evaluated as follows. That is, MC3T3-E1 cells were placed in each well in 24-well plates (Corning) in an amount of 5000 cells/well. Then each IFN dilution was added to each well in an amount of 0.1 ml/well, and the culturing was begun. On Day 2, the medium was removed and the each IFN dilution was added in an amount of 0.5 ml/well (total amount of liquid: 0.5 ml/well). On Day 6, the medium was removed and the cells were washed with PBS(−) and a mixed enzyme solution of 0.1% pronase/0.1% collagenase was added to each well in an amount of 200 μl/well, followed by allowing to react at 37° C. for 15 minutes. Then α-MEM containing 10% fetal calf serum (Gibco, hereinafter referred to as “FCS” for short) was added in an amount of 300 μl/well to disperse the cells therein and the number of the cells was counted with a Coulter counter.

Data on one substance can be found in patent US20050180954A1, “Drug for treating bone disorders” (priority 1995, published 2005).

Turning to “MuIFNβ: murine interferon β, Lot M-0034, prepared by Toray Industries, Inc. by genetic engineering technique”, in assay [1] (Example 1, Day 8, TRAP positive multinuclear cells), the “inhibition of formation of osteoclast like cells” value was “strongly inhibited formation of osteoclast like cells”. Besides, the “inhibition concentration IC50 of formation of osteoclast like cells” value in assay [1] (Example 1, Vit D3 + dexamethasone, Day 8, TRAP positive multinuclear cells) is given as 0.2 units/ml. For the same substance, in assay [1] (Example 8 comparison of three murine IFNs), the “IC50 of inhibition of formation of osteoclast like cells” value was “about 0.9 units/ml”. In addition, in the assay with MC3T3-E1 cells, the “inhibition of proliferation of MC3T3-E1 cells” value is on record as “did not inhibit the proliferation at all”.
